Assay [1] deals with T1, Inhibitor of nuclear factor kappa-B kinase subunit alpha (Homo sapiens) (UniProt O15111).
T1 sequence (whole entry): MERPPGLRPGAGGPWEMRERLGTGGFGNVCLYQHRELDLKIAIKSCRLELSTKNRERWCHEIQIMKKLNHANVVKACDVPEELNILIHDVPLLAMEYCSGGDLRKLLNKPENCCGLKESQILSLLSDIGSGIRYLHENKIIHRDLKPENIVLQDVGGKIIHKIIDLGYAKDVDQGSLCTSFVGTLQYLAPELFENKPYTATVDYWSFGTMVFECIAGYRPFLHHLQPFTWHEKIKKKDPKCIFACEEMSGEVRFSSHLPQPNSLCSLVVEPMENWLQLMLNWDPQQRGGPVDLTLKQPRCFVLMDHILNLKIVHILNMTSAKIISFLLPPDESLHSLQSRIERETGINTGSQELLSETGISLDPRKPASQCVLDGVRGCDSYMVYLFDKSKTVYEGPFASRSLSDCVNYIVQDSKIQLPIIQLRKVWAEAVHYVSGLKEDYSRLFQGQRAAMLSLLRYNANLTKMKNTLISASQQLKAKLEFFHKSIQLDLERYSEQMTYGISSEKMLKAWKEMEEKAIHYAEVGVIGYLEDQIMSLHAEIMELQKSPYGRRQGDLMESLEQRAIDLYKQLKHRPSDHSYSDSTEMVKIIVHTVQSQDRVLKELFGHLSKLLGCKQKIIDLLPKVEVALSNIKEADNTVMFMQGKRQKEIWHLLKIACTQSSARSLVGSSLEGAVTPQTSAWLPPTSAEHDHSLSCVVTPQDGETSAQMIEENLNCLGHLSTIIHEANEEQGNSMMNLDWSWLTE
The settings on record: at 10 µM.

In assay [2] the target is T2, Histone-arginine methyltransferase CARM1 (Homo sapiens) (UniProt Q86X55).
T2 sequence (whole entry): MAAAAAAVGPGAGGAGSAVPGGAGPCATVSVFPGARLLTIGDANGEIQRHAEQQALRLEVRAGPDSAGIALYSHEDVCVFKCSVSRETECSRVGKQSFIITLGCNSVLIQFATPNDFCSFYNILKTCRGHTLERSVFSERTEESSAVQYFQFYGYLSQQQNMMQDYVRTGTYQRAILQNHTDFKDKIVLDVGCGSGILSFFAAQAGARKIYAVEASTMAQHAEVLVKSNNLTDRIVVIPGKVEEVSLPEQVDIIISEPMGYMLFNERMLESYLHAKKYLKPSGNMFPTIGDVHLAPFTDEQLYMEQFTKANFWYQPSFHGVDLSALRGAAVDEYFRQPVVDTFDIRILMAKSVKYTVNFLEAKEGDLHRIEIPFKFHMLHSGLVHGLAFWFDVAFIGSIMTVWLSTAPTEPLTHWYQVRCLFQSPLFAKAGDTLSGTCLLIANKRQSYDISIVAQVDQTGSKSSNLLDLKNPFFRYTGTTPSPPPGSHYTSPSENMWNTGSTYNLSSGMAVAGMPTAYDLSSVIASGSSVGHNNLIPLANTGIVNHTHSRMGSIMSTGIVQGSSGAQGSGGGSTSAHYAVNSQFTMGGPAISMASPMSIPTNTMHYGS
The settings on record: at 1 µM.

In assay [3] the target is Serine/threonine-protein kinase pim-1 (Homo sapiens, UniProt P11309). In words: Selectivity interaction (KinomeScan (DiscoverX)) EUB0000229b PIM1. The settings on record: at 10 µM.
Sequence of Serine/threonine-protein kinase pim-1 (P11309 whole entry, looked up): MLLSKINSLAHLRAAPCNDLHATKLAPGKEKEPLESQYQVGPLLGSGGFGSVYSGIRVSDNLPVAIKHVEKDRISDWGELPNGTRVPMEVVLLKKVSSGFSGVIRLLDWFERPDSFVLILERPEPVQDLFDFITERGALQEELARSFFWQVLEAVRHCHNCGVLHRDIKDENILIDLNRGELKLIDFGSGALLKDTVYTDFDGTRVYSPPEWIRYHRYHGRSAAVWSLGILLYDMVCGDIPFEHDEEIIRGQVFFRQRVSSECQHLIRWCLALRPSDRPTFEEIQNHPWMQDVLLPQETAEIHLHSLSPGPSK
Assay [4] has as its target Phosphatidylinositol 3-kinase catalytic subunit type 3 (Homo sapiens, UniProt Q8NEB9). In words: Selectivity interaction (KinomeScan (DiscoverX)) EUB0001049a PIK3C3. The settings on record: at 1 µM.
Assay [5] addresses T3, Serine/threonine-protein kinase ULK2 (Homo sapiens) (UniProt Q8IYT8).
T3 sequence (whole entry): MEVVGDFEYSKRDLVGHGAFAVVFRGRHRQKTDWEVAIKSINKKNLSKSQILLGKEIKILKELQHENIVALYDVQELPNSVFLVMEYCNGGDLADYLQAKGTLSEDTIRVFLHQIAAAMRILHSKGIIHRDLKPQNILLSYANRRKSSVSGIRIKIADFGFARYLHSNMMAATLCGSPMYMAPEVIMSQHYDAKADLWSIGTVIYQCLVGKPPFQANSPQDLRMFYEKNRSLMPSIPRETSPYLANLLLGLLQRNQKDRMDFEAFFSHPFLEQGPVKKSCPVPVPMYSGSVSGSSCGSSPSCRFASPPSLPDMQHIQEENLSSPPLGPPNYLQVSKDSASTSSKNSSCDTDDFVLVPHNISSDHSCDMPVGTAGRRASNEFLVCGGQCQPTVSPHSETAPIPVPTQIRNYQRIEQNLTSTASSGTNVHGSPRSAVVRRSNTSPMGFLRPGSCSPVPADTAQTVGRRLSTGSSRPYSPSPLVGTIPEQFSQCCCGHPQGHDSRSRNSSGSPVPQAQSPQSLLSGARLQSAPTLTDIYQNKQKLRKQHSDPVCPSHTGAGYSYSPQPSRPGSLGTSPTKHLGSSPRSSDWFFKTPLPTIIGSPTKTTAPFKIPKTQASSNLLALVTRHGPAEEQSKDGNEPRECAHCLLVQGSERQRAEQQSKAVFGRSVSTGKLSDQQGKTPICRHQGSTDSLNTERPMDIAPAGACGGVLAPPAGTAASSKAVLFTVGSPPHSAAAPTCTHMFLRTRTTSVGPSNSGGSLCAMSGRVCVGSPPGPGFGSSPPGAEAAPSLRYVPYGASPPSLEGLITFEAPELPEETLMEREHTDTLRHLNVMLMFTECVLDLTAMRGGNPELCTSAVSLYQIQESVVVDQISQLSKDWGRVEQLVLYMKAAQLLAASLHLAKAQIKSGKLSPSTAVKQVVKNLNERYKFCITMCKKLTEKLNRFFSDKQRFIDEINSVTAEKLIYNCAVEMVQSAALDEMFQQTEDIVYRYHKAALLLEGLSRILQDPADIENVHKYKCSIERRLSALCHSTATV
In words: Selectivity interaction (KinomeScan (DiscoverX)) EUB0000045b ULK2.

In assay [6] the target is Dual specificity mitogen-activated protein kinase kinase 1 (Homo sapiens, UniProt Q02750). Kind of assay: Selectivity interaction (KinomeScan (DiscoverX)) EUB0000618a MAP2K1. The settings on record: at 10 µM.
Sequence of Dual specificity mitogen-activated protein kinase kinase 1 (Q02750 whole entry): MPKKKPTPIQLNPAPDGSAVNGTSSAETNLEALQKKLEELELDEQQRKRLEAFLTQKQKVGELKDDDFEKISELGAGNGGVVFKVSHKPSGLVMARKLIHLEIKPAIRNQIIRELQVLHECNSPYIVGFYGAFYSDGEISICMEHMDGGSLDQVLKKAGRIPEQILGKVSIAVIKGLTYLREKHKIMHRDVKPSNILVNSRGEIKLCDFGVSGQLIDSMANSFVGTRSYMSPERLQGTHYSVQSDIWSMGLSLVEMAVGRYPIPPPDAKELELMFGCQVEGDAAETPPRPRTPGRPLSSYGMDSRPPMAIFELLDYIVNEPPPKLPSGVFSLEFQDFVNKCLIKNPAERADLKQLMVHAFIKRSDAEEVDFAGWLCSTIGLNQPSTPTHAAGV

Sequence of Phosphatidylinositol 3-kinase catalytic subunit type 3 (Q8NEB9 whole entry): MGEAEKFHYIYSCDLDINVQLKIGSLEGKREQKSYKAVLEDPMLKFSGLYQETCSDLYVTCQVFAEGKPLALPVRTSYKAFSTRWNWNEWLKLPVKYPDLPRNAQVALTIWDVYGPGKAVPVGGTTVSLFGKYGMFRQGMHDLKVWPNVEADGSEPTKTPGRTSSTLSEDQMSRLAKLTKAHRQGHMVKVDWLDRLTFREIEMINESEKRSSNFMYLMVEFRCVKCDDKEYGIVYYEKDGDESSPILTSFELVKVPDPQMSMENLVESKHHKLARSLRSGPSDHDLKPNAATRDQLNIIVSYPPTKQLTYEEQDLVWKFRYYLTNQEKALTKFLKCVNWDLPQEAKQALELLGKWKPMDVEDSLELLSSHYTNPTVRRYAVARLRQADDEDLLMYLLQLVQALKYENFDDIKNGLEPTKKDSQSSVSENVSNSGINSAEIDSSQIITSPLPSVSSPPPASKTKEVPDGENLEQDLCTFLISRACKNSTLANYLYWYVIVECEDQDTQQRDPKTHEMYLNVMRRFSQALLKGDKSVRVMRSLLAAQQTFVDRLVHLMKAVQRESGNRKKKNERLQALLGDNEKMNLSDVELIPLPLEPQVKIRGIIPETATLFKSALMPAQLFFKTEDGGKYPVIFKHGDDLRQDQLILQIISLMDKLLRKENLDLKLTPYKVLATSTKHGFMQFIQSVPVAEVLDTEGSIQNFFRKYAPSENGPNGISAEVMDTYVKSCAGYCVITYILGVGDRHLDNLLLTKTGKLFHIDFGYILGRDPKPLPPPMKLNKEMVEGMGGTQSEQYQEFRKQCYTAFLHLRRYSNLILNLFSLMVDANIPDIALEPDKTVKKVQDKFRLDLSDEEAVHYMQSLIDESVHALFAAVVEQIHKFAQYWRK

In assay [1], `Cc1cc([C@@H](C)Nc2ccccc2C(=O)O)c2nc(N3CCOCC3)cc(=O)n2c1` [AZD-6482] had a % of control of 100%.
In assay [2], `CNCCN1CCC(c2cc(CN(C)C(=O)c3cccc(Oc4ccccc4)c3)ccn2)CC1` gave a % activity of 75%.
`COc1cc(N(C)c2ccnc3ccc(C(F)(F)F)cc23)cc(OC)c1OC` had a % binding in assay [3] of 69%.
With `COc1cc(Nc2nc(C)cc(-c3cnn4nc(OC)ccc34)n2)cc(C(F)(F)F)c1`, the % of control in assay [4] amounted to 100%.
For the compound `C=CC(=O)Nc1cc(-n2c(=O)ccc3cnc4ccc(-c5ccc(NS(C)(=O)=O)cc5)cc4c32)ccc1C`, the % of control is 100% in assay [5] (at 1 µM) and 92% in assay [5] (at 10 µM).
For the compound `O[C@H]1CC[C@H](Nc2ncc3nc(Nc4c(F)cc(F)cc4F)n([C@H]4CCOC4)c3n2)CC1`, the % of control in assay [6] is 100%.

The values are drawn from ChEMBL document CHEMBL5465560, “Selectivity Literature for EUbOPEN Chemogenomic Library” (2024).
